What all share (type): biochemical
Experiment [1] concerns the target T1, recombinant human caspase-7 (Homo sapiens, UniProt P55210).
T1 construct: each active recombinant human caspase was incubated; purchased Calbiochem
T1 sequence (P55210 24-198 limits assumed): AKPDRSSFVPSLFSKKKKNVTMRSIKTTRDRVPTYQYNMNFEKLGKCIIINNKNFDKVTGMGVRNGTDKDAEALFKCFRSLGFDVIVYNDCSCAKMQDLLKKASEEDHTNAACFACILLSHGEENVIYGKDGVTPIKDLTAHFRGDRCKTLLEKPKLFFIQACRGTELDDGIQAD
T1 sequence (P55210 207-303 limits assumed): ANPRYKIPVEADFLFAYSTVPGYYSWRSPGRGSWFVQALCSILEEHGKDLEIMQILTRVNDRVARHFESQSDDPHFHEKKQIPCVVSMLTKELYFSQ
Description: Ac-DNLD-MCA and Ac-DEVD-MCA cleavage assay, caspase-7. The note with it: 200 μM substrate, 37°C, MCA liberation. Here is the method: (§1) To characterize the potency and selectivity of Ac-DNLD-MCA for caspases-3, -7, -8, and -9, in vitro caspase activity assays were performed. One unit (the amount of enzyme that cleaves 1 nmol of substrate per hr) of each active recombinant human caspase was added to a reaction mixture containing 200 μM Ac-DNLD-MCA or Ac-DEVD-MCA in assay buffer (100 mM NaCl, 50 mM HEPES, 10 mM DTT, 1 mM EDTA, 10% glycerol, and 0.1% CHAPS, pH 7.4). Then, the liberation of MCA was monitored continuously at 37°C using a 96-well plate reader Wallace 1420 ARVOsx (PerkinElmer) with an excitation wavelength of 390 nm and an emission wavelength of 460 nm.

Experiment [2] concerns the target T2, recombinant human caspase-8 (Homo sapiens, UniProt Q14790).
T2 construct: each active recombinant human caspase was incubated; purchased Calbiochem
Description: Ac-DNLD-MCA and Ac-DEVD-MCA cleavage assay, caspase-8. The note with it: 200 μM substrate, 37°C, MCA liberation. Here is the method:
as §1

For experiment [3], the target named is T3, recombinant human caspase-9 (Homo sapiens, UniProt P55211).
T3 sequence (P55211 140-315 limits assumed): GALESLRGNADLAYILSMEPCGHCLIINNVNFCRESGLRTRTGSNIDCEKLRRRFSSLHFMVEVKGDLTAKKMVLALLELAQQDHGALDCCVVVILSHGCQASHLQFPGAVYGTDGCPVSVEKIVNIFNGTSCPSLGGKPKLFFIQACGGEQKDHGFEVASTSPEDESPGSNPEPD
T3 sequence (P55211 331-416 limits assumed): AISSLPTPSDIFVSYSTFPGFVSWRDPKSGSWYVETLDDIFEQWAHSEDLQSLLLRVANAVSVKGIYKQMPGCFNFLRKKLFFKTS
Description: Ac-DNLD-MCA and Ac-DEVD-MCA cleavage assay, caspase-9. Conditions: 200 μM substrate, 37°C, MCA liberation. The method, then:
as §1

Experiment [4] addresses T4, substituted (S209A) caspase-3 (Homo sapiens, UniProt P42574, S209A).
T4 construct: Active caspase-3 was generated by coexpression of HA-p17 and HA-p12 (wild type or mutant) subunits in vitro; (position 176–208, antisense); made in house
T4 sequence (P42574 29-175 limits assumed): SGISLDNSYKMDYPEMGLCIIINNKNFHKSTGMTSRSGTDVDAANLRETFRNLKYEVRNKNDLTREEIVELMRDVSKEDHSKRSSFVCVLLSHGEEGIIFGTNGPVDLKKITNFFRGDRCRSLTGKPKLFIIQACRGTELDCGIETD
T4 sequence (P42574 176-277 S209A limits assumed): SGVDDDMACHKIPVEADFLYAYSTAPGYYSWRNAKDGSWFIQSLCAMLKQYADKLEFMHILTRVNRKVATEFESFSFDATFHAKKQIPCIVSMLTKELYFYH
Briefly: Cleavage assay with substituted (S209A) caspase-3 versus wild-type. Conditions: S209A versus wild-type caspase-3. The method, then: as §1
Site-directed mutagenesis of p12 subunit (S209A) was introduced using PCR. The following primers were used for the preparation of the mutant, 5'-[…] TGACATG-3' (position 176–208, sense) and 5'-[…]-3' (position 176–208, antisense); 5'-[…]-3' (position 209–277, sense) and 5'-[…]-3' (position 209–277, antisense). The mutated site (Ser209→Ala) was shown in bold letter. After each fragments were amplified and ligated, they were tagged with HA and subcloned into pcDNA3 B (Invitrogen) at the EcoRV site. After comfirming the sequences, the inserts were excited by XhoI digestion and recloned into the XhoI site of pURE4 (Post Genome Institute Co., Ltd.) […]

From paper PMC1931592 (BMC Pharmacology, 2007) come the findings set out here.

“Also recorded” adds a separate entry of the source.

T2 sequence (Q14790 217-374 limits assumed): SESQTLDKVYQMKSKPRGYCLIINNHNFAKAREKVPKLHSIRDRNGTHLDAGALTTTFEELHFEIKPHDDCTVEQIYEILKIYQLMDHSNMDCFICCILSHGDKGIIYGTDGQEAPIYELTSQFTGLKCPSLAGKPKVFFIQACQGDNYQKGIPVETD
T2 sequence (Q14790 385-479 limits assumed): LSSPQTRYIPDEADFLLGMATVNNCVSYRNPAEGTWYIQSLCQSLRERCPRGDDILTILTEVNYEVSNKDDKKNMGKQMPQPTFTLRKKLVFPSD

Regarding Ac-DEVD-MCA, the “cleavage of fluorometric substrate by caspase-7 (in words)” value in experiment [1] is listed as “able to cleave”. Further, the “cleavage of fluorometric substrate by caspase-8 (in words)” value in experiment [2] is listed as “able to cleave”. In addition, the “cleavage of fluorometric substrate by caspase-9 (in words)” value in experiment [3] is reported as “able to cleave”. In experiment [4], the “cleavage of substrate by S209A caspase-3 compared with wild-type (in words)” value is “virtually no effect; also recorded: as efficient as the wild-type”.
